Data set [1] concerns human skin epidermal keratinocytes (HaCaT). Briefly: Protecting effect against cell death of HaCaT induced by UVB irradiation (WST-1 viable cell count). The format is cell-based. As to conditions: compared to ascorbic acid or 2-O-(α-D-glucopyranosyl)ascorbic acid at the same concentration; added at 20-100 μM 2 h before UVB 35 mJ/cm^2. The protocol: The human skin epidermal keratinocyte line HaCaT (a cell line provided by Professor Fusenig of Heidelberg University) was plated on a 24-well plate at 10,000 cells/well with Dulbecco's modified Eagle medium (DMEM) containing 10% fetal bovine serum (FBS) and after 18 hours, the cells were irradiated with UVB (maximum wavelength: 312 nm) at 35 millijoules/square centimeter (mJ/cm^2). Two hours before irradiation, 2-O-(β-D-glucopyranosyl)ascorbic acid was added at 20-100 μM and removed with rinsing just before irradiation. The irradiation was performed in PBS in the absence of chemical agents, after which culturing was continued in DMEM containing 10% FBS, and the viable cell count was determined 24 hours after irradiation by measuring the mitochondrial dehydrogenase activity using 2-(4-iodophenyl)-3-(4-nitrophenyl)-5-(2,4-disulfophenyl)-2H-tetrazolium monosodium salt (WST-1). For comparison, 2-O-(α-D-glucopyranosyl)ascorbic acid and ascorbic acid were examined in a similar manner, and the results are also shown in FIG. 5.
In general terms: Tetrazolium assays rely on reduction of a dye to a coloured formazan, in cell work by metabolically active cells.

For data set [2] the test system is unchanged. Put plainly: Intracellular ascorbic acid concentration in human skin epidermal keratinocytes (HPLC). The format is cell-based. The settings on record: 100 μM, 3-24 hours after addition, compared with 2-O-(α-D-glucopyranosyl)ascorbic acid and ascorbic acid. The protocol: Human skin epidermal keratinocyte cells HaCaT were plated onto a 100 mm diameter dish at a cell count of 370,000. After 16 hours of culturing, there was added 100 μM of 2-O-(β-D-glucopyranosyl)ascorbic acid dissolved in DMEM containing 10% FBS and 40% of 24-hour serum-free HaCaT culture solution. The medium was removed 3-24 hours after the addition, rinsing was performed twice with ice-cooled PBS, and the cell sheet was treated with trypsin to obtain the separated cells. These were suspended in PBS containing 50 μM dithiothreitol (DTT) and rinsed 3 times by centrifugation. The cells received freeze-thawing twice were crushed with a Potter-type teflon homogenizer for 30 sec on the ice. The cell homogenate was centrifuged at 5° C., and supernate thus separated was stored on the ice. The supernatant was subjected to treatment with Molcut (product of Nihon Millipore Co., Ltd.; High-pressure ultrafiltration unit, nominal molecular weight limit (NMWL): 10,000, polyethersulfone membrane), and the amount of intracellular ascorbic acid was analyzed by high performance liquid chromatography (AS-8020 System by Toso Co., Ltd., column: Shodex ODSpak (4.6×150 mm, product of Showa Denko Co., Ltd.), mobile phase: 0.1 M KH2PO4—H3PO4 (pH 2.35)-0.1 mM EDTA-2 Na, flow rate: 1.5 mL/min) using a coulometric electrochemical detector (ESA Co., Bedford, Mass., 200 mV). […]

Data set [3] has as its system normal human dermal fibroblasts (NHDF). Briefly: Collagen synthesis by normal human dermal fibroblasts ([3H]proline incorporation, collagenase-digestible). The format is cell-based. The settings on record: 100 μM, 48 hours, compared to 2-O-(α-D-glucopyranosyl)ascorbic acid or ascorbic acid. The procedure: Normal human dermal fibroblast cells (NHDF) were plated onto a 100 mm diameter dish at a cell count of 370,000. After 16 hours of culture, there was added 100 μM of 2-O-(β-D-glucopyranosyl)ascorbic acid dissolved in DMEM medium containing 10% FBS and 40% of 24-hour serum-free NHDF culture solution. After another hour, 0.12 mL (120 μCi) of L-[2,3-^3H]proline was added and culturing was continued for 48 hours. The medium was removed after culturing, and the cell sheet was rinsed 4 times with PBS. The cells were then treated with trypsin, lysed with an alkali, and then neutralized to obtain the intracellular protein. The fraction obtained by digesting this protein with Clostridium collagenase was measured in terms of radioactivity with a liquid scintillation counter using Scintisol EX-H. The intracellular protein fraction not treated with collagenase was also measured in terms of radioactivity using a liquid scintillation counter. The difference in radioactivities was calculated and recorded as the collagen synthesizing activity. For comparison, 2-O-(α-D-glucopyranosyl)ascorbic acid and ascorbic acid were examined in a similar manner, and the results are also shown in FIG. 7.

Data set [4] is described as follows: Intestinal absorption in rat: portal vein plasma concentrations after oral administration. Format: in vivo. The procedure: A solution of 2-O-(β-D-glucopyranosyl)ascorbic acid in Milli-Q Ultrapure Water (Millipore Corporation) (100 mg/4 mL) was orally administered at a dose of 100 mg/kg by using a feeding tube to overnight-starved and awake 10-week-old male Wistar rats (n=3) purchased from Nihon Charles River Co. After 0, 0.5, 2 and 4 hours, heparinized blood samples were collected from the portal vein and the plasma from each sample was separated by centrifugation (6000×g, 10 min). After addition of an equivalent of ice-cooled 10% metaphosphoric acid (containing 40 mM deferoxamine mesylate), the mixture was centrifuged (10,000×g, 10 min) to obtain protein-removed portal vein plasma, of which the unconverted 2-O-(β-D-glucopyranosyl)ascorbic acid and ascorbic acid concentrations were measured by high performance liquid chromatography (LC-10Ai System by Shimadzu Co., Ltd., Column: Inertsil ODS-3 (GL Science Co., Ltd., 3.0×150 mm, 5 μm), mobile phase: 15% MeOH-17 mM KH2PO4/H3PO4 (pH 3.5)-5 mM tetra-n-amylammonium bromide, flow rate: 0.3 mL/min, column temperature: 35° C., detection wavelength: 254 nm). The unconverted 2-O-(β-D-glucopyranosyl)ascorbic acid and the metabolite (ascorbic acid) were found present in maximum amounts 30 minutes after administration.

For data set [5], the system named is normal human dermal fibroblast (NHDF) cells. Put plainly: Population doubling level (PDL) of normal human dermal fibroblasts. The format is cell-based. As to conditions: 100 μM. The procedure:
Normal human dermal fibroblast (NHDF) cells were plated onto a 100 mm diameter dish at a cell density of 370,000. After 16 hours of culture in DMEM supplied with 10% FBS, the medium was replaced by DMEM fortified with 10% FBS and supplied with 40% of a domestic-conditioned medium containing 100 μM of 2-O-(β-D-glucopyranosyl)ascorbic acid. The cultivation was continued for 46-188 hours until cells reached a near confluent state. The domestic-conditioned medium was prepared by separately culturing NHDF cells to the state of near confluency, which was further cultivated in a serum-free medium for 24 hours, and collecting the culture supernatant, which was stored in a refrigerator and used within 3 days. In connection with the above 46-188 hours of cultivation, the medium was changed every 3 days with fresh DMEM fortified with 10% FBS and supplied with 40% of the domestic-conditioned medium containing 100 μM of 2-O-(β-D-glucopyranosyl)ascorbic acid. When medium change was made, the cell number in the old culture medium was counted and used in the PDL assessment. The number of cells adhering onto the plate was counted by Coulter counter. PDL value at the start of culture was taken as 0, and PDL values thereafter were calculated by the equation: PDL=log2(recovered cell number/seeded cell number). […]

A further data set relates to NHDF cells. Put plainly: Reduction speed of telomere lengths (TRF Southern blot) in NHDF cells. The format is cell-based, human. The protocol:
The TRFs were separated by electrophoresis and the length of the telomere DNA was quantified with a labeled probe specifically binding to telomere. Details of the method used in the study is described in Life Sciences, Vol. 63, No. 11, 935-948 (1998).
The fibroblast cells (NHDF) from human skin epidermis were dispersed by treatment with trypsin, added into a 1.5 ml tube at 10^6/tube, centrifuged for 2 min. at 1,200 rpm at 4° C., and the supernatant was discarded. The pellet was washed two times with 1 ml RNase free PBS(−), the supernatant was removed as sufficiently as possible, and the cells were stored at −80° C. The frozen sample was restored to ambient temperature, genomic DNA was extracted by use of IsoQuick Nucleic Acid Extraction Kit (ORCA Research Inc.). The extracted DNA was dissolved in 10 mM Tris-HCl, 1 mM EDTA, pH8.0 to be stored at 4° C. The DNA content was determined by the fluorescent reader (Cytofluor 2350, Millipore Corporation) with the DNA binding reagent Hoechist 33258, and TRF was prepared by restricted digestion with HinfI treatment. The restricted digestion was carried out as follows. There were added into a 1.5 ml tube, 2 μl of 10× H buffer (TaKaRa, Kyoto), the solution of extracted genomic DNA (2 μg), sterilized water to make up 19 μl, and finally 1 μl of HinfI (6 U/μl, TaKaRa, Kyoto). […]

For data set [6] the following is noted: rats; cited from earlier work.

Like-named read-outs stand apart in the source and are kept apart here.

Turning to `O=C1O[C@H]([C@@H](O)CO)C(O)=C1O[C@@H]1O[C@H](CO)[C@@H](O)[C@H](O)[C@H]1O` [2-O-(β-D-glucopyranosyl)ascorbic acid], the “effect of preventing cell death of HaCaT induced by UVB irradiation” value in data set [1] is listed as “stronger effect of preventing cell death”. For the same compound, the “intracellular ascorbic acid concentration” value in data set [2] is reported as “maintained at a higher concentration for the longest time”. In addition, the collagen synthesis activity entry in data set [3] was “increased activity”. In addition, in data set [4] (Wistar rats, oral 100 mg/kg), the “time of maximum amount of unconverted 2-O-(β-D-glucopyranosyl)ascorbic acid in portal vein plasma” value was found to be 30 min. For the same compound, the “unconverted form in the blood upon oral ingestion” value in data set [4] (rats, oral) is reported as “detected in the blood”. The “PDL of NHDF greater than in the absence of ascorbic acid derivative (PDL 20.1)” value in data set [5] is recorded as 2.62 times. Further, in the data set on NHDF cells (225 bp/PDL in the absence of any ascorbic acid derivative), the “average reduction speed of telomere length” value turned out to be 94 bp/PDL. Further, the “shortening of the speed of the telomere length to reduce to the critical length” value in the data set with NHDF cells (versus no ascorbic acid derivative) is given as “approximately 42%”.
Regarding `O=C1O[C@H]([C@@H](O)CO)C(O)=C1O[C@H]1O[C@H](CO)[C@@H](O)[C@H](O)[C@H]1O` [2-O-(α-D-glucopyranosyl)ascorbic acid], the “unconverted form in the blood upon oral ingestion” value in data set [6] is “no detection of the unconverted form in the blood”.
